Test results taken from patent US5703050A (Hoechst Aktiengesellschaft, priority 1993, dated 1997).
Where two headings read alike, the source gives them in different places.

Tests used:
[1] = tested on: gel-filtered human platelets; experiment: Inhibition of the aggregation of gel-filtered human platelets after ADP or thrombin stimulation; assay type: cell-based; details: platelet aggregation
Experimental: (§1) The compounds are tested in particular for their inhibitory effect on blood platelet aggregation and the adhesion of fibrinogen to blood platelets. Gel-filtered blood platelets from human donor blood are used, which are activated with ADP or thrombin.
As a functional test, the inhibition of the aggregation of gel-filtered human platelets is measured after ADP or thrombin stimulation by the compounds according to the invention. The IC50 value of the inhibition is indicated (reference: G. A. Marguerie et al., J. Biol. Chem. 254 (1979), 5357-5363).

[2] = molecular target: T1, fibrinogen receptor (glycoprotein IIb/IIIa) (Homo sapiens, UniProt P05106+P08514); experiment: Inhibition of binding of 125I-fibrinogen to its receptor on intact, gel-filtered human platelets; details: inhibition of 125I-fibrinogen binding after stimulation with ADP (10 μM), read-out: Ki (μM), ADP-stimulated
T1 construct: its receptor (glycoprotein IIb/IIIa) on intact, gel-filtered human platelets; endogenous in cells; host or cells: gel-filtered platelets from human donor blood, stimulated with ADP (10 uM)
T1 sequence (P08514 32-887 limits assumed): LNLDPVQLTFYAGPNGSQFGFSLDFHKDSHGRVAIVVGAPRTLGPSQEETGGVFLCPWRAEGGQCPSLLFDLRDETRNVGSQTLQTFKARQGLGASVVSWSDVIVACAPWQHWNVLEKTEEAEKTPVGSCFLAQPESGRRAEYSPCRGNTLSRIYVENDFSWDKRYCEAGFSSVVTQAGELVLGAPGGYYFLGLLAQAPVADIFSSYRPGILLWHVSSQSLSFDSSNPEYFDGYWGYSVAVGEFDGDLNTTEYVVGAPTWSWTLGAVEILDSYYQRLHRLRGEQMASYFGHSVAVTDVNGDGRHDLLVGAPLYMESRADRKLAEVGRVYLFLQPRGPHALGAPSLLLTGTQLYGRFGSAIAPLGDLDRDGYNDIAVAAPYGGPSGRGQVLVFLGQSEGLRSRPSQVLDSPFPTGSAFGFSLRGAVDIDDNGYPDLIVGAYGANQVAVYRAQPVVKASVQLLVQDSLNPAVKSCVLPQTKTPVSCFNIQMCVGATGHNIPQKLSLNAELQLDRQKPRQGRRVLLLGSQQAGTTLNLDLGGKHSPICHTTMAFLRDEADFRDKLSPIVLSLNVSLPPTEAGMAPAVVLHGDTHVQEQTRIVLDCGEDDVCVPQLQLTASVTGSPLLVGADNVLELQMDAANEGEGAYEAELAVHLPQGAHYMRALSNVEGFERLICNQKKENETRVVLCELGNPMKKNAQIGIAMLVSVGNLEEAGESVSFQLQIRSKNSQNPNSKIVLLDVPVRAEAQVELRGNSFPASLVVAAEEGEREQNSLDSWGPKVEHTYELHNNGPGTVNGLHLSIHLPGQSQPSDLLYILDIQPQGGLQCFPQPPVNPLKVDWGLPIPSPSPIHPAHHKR
T1 sequence (P08514 891-1039 limits assumed): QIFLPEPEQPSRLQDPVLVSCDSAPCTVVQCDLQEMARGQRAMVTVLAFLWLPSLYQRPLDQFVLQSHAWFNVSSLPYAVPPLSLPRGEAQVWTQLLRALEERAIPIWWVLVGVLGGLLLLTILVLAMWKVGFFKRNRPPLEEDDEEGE
T1 sequence (P05106 27-788): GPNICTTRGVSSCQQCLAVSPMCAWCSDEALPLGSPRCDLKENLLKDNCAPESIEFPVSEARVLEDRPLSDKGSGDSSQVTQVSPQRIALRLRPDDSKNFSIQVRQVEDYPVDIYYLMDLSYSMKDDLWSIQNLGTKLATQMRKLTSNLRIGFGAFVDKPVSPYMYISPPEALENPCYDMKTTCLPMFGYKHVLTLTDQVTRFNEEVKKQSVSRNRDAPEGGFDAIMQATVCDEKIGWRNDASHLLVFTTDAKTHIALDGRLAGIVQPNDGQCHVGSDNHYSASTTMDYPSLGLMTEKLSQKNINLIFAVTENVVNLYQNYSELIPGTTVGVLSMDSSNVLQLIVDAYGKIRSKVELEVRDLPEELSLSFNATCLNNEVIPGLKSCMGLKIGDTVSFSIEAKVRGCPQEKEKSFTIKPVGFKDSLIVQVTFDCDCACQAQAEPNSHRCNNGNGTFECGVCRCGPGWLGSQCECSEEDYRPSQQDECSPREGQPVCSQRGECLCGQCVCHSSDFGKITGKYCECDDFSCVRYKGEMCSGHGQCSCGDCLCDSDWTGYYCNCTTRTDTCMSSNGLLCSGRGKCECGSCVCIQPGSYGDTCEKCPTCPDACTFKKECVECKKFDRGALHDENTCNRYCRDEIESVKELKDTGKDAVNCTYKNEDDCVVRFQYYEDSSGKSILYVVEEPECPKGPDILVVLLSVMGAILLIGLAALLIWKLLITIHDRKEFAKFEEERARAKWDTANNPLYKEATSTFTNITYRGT
Experimental: as §1
The inhibition of the binding of fibrinogen to its receptor (glycoprotein IIb/IIIa) on intact, gel-filtered human platelets by the compounds according to the invention is tested. The Ki value of the inhibition of binding of 125I-fibrinogen after stimulation with ADP (10 μM) is indicated. (Reference: J. S. Bennett and G. Vilaire, J. Clin. Invest. 64 (1979) 1393-1401; E. Kornecki et al., J. Biol. Chem. 256 (1981), 5695-5701; G. A. Marguerie et al., J. Biol. Chem. 254 (1979) 5357-5363; G. A. Marguerie et al., J. Biol. Chem. 255 (1980) 154-161.)

[3] = ADP stimulation, read-out: ADP-stimulated IC50
[4] = thrombin stimulation, read-out: thrombin-stimulated IC50

Compound | IC50 [1, 3] | IC50 [1, 4] | Ki [2]
3-(3-(3-Aminopropyl)ureido)benzoyl-L-aspartyl-L-phenylglycine [Example 10] | 8500 nM | 3000 nM | –
3-((3-(4-(Aminoiminomethyl)phenyl)ureido)acetylamino)-3-phenyl-propionic acid [Example 7] | 3000 nM | 1500 nM | –
N=C(N)c1ccc(NC(=O)NCC(=O)N[C@@H](CC(=O)O)C(=O)N[C@H](C(=O)O)c2ccccc2)cc1 [Example 1] | 150 nM | 100 nM | 0.03 µM
(3-(4-(Aminoiminomethyl)phenyl)ureido)acetyl-L-aspartyl-L-phenylglycine methyl ester trifluoroaetate [Example 6] | 750 nM | 300 nM | –
(3-(4-(Aminoiminomethyl)phenyl)ureido)acetyl-L-aspartylbenzylamide [Example 8] | 2000 nM | 2000 nM | –
